# Patent US20260325533A1, “CDK INHIBITOR COMPOUNDS” (ALEKSIA THERAPEUTICS, INC., priority 2023, published 2026)
# Where two headings read alike, the source gives them in different places.
# Experiments:
# Type in all cases: biochemical
# [1] = biological target: CDK2/CCNE1 (Homo sapiens, UniProt P24941); experiment: CDK2 homogeneous time-resolved fluorescence (HTRF) kinase assay
# Outline: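 CDK2/CCNE1 (3 nM) preincubated 20 min at 23 °C with compound, then reacted 60 min at 23 °C with 1 mM ATP and 50 nM ULight-4E-BP1 (Thr37/46) peptide. Stopped with EDTA, phospho-peptide detected by Eu-anti-phospho antibody (665 nm or 665/615 ratio). IC50 from 11-point half-log titrations typically starting at 10 μM.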
# [2] = biological target: CDK1/CCNB1 (Homo sapiens, UniProt P06493); experiment: CDK1 homogeneous time-resolved fluorescence (HTRF) kinase assay
# Outline: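 Kinase activity is measured as Lance signal (665 nm, or 665/615 nm ratio) from europium-labelled anti-phospho-Thr37/46 antibody binding ULight-4E-BP1 peptide. Reactions contain 0.5 nM enzyme, 1 mM ATP, 1% DMSO and run 60 min at 23 °C before EDTA quench.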
# [3] = biological target: CDK4/CCND3 (Homo sapiens, UniProt P11802); experiment: CDK4 homogeneous time-resolved fluorescence (HTRF) kinase assay
# Outline: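 Inhibition of CDK4/CCND3 (1.5 nM) was measured at high ATP (1 mM) using 50 nM ULight-labelled 4E-BP1 Thr37/46 peptide; detection used 2 nM europium anti-phospho antibody after EDTA quench. IC50 values came from 11-point half-log titrations typically starting at 10 μM.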
# [4] = biological target: CDK6/CCND1 (Homo sapiens, UniProt Q00534); experiment: CDK6 homogeneous time-resolved fluorescence (HTRF) kinase assay
# Outline: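 1 nM enzyme, 1 mM ATP, 50 nM ULight-4E-BP1 (Thr37/46) peptide, 1% DMSO; 20 min compound preincubation, 60 min reaction, 23 °C. EDTA stop, 2 nM Eu-anti-phospho-4E-BP1 antibody 60 min. TR-FRET 665 nm (or 665/615 ratio); IC50 from 11-point half-log titration, top 10 μM.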
# [5] = CDK2/CCNE, <25 nM, read-out: CDK2/CCNE IC50 <25 nM
# [6] = CDK1/CCNB, >250 nM marked x, read-out: CDK1/CCNB IC50 >250 nM
# [7] = CDK4/CCND, 25-250 nM marked x, read-out: CDK4/CCND IC50 25-250 nM
# [8] = CDK6/CCND, >250 nM marked x, read-out: CDK6/CCND IC50 >250 nM
# [9] = CDK2/CCNE, x = IC50 <25 nM, read-out: CDK2/CCNE IC50 (<25 nM)
# [10] = CDK1/CCNB, x = IC50 >250 nM, read-out: CDK1/CCNB IC50 (>250 nM column)
# [11] = CDK4/CCND, x = IC50 >250 nM, read-out: CDK4/CCND IC50 (>250 nM column)
# [12] = CDK6/CCND, x = IC50 >250 nM, read-out: CDK6/CCND IC50 (>250 nM column)
# [13] = CDK2/CCNE, 25-250 nM marked x, read-out: CDK2/CCNE IC50 25-250 nM
# [14] = CDK4/CCND, >250 nM marked x, read-out: CDK4/CCND IC50 >250 nM
# [15] = CDK6/CCND, 25-250 nM marked x, read-out: CDK6/CCND IC50 25-250 nM
# [16] = >250 nM, CDK1/CCNB, read-out: CDK1/CCNB IC50 >250 nM
# [17] = >250 nM, CDK4/CCND, read-out: CDK4/CCND IC50, >250 nM
# [18] = >250 nM, CDK6/CCND, 1 mM ATP, read-out: CDK6/CCND IC50, >250 nM
# [19] = CDK2/CCNE, x = IC50 25-250 nM, read-out: CDK2/CCNE IC50 (25-250 nM)
# [20] = <25 nM, CDK2/CCNE, read-out: CDK2/CCNE IC50, <25 nM
# Chain of CDK4/CCND3 (P11802 whole entry): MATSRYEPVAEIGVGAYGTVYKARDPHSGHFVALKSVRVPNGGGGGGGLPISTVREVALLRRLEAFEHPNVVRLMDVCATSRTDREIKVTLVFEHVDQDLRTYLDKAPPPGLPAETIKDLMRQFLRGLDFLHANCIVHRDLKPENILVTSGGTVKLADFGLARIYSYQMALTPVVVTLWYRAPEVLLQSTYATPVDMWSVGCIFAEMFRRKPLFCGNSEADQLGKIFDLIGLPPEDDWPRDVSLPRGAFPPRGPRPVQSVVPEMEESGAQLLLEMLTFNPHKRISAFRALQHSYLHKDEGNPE
# Chain of CDK4/CCND3 (P30281 whole entry partner): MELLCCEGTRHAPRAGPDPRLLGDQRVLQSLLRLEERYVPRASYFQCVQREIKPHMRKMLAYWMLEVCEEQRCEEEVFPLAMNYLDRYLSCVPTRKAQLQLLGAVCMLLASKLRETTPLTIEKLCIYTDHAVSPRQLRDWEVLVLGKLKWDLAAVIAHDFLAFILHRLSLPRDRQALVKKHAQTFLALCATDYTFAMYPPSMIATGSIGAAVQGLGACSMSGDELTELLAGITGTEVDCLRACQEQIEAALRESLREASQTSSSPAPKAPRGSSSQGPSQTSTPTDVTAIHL
# Chain of CDK1/CCNB1 (P06493 whole entry): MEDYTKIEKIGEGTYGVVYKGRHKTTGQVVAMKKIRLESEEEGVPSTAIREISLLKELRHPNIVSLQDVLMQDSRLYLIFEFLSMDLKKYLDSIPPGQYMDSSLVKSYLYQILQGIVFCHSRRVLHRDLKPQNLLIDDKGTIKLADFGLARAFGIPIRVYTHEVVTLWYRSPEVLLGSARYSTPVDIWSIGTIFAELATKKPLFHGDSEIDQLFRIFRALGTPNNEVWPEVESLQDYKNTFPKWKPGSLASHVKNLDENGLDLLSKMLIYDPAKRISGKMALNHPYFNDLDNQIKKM
# Chain of CDK1/CCNB1 (P14635 whole entry partner): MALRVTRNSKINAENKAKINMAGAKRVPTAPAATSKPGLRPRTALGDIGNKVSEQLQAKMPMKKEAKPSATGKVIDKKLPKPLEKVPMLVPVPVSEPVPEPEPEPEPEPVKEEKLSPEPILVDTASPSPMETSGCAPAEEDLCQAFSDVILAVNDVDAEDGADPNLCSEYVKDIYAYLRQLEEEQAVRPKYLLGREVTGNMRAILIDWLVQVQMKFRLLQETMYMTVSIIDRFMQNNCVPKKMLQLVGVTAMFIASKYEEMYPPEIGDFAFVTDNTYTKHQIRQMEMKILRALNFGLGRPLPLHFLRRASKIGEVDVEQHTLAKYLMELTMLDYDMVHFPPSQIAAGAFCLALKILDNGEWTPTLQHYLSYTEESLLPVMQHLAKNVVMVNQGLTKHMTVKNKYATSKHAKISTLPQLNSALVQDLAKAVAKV
# Chain of CDK6/CCND1 (Q00534 whole entry): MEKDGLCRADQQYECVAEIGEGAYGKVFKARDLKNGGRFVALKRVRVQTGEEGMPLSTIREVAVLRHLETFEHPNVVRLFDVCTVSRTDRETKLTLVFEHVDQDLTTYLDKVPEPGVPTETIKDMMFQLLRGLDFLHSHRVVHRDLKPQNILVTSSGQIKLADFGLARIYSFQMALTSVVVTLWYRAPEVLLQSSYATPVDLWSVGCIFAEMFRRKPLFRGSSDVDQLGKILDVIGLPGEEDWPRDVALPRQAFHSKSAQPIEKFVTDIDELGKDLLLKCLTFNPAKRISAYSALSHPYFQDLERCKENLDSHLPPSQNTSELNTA
# Chain of CDK6/CCND1 (P24385 whole entry partner): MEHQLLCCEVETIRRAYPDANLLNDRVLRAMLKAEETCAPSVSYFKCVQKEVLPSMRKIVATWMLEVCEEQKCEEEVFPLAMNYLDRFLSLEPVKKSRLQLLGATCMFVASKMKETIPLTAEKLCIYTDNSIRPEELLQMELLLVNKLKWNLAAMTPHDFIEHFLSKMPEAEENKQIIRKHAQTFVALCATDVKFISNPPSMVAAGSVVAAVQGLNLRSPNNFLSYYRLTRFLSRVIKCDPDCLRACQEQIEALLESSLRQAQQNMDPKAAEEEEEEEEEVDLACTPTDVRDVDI
structure (smiles),measurement,setting,value
"CS(=O)(=O)c1ccc(Nc2cc3c(-c4ccc5[nH]ncc5c4Cl)nccc3cn2)cc1 [Ex 183, 5-(4-chloro-1H-indazol-5-yl)-N-(4-(methylsulfonyl)phenyl)-2,6-naphthyridin-3-amine]",IC50,[1]; [5],< 25 nM
same,IC50,[2]; [6],> 250 nM
same,IC50,[3]; [7],25 to 250 nM
same,IC50,[4]; [8],> 250 nM
"CCS(=O)(=O)c1ccc(Nc2cc3c(C#Cc4cccnc4N)nccc3cn2)cc1 [Ex 401, 5-((2-aminopyridin-3-yl)ethynyl)-N-(4-(ethylsulfonyl)phenyl)-2,6-naphthyridin-3-amine]",IC50,[1]; [9],< 25 nM
same,IC50,[2]; [10],> 250 nM
same,IC50,[3]; [11],> 250 nM
same,IC50,[4]; [12],> 250 nM
"C=CS(=O)(=O)c1ccc(Nc2cc3c(-c4ccc5cn[nH]c5c4)nccc3cn2)cc1 [Ex 241, 5-(1H-indazol-6-yl)-N-(4-(vinylsulfonyl)phenyl)-2,6-naphthyridin-3-amine]",IC50,[1]; [13],25 to 250 nM
same,IC50,[2]; [6],> 250 nM
same,IC50,[3]; [14],> 250 nM
same,IC50,[4]; [15],25 to 250 nM
"Cc1cnc(C#Cc2nccc3cnc(Nc4ccc(S(C)(=O)=O)cc4)cc23)[nH]1 [Ex 901, 5-((5-methyl-1H-imidazol-2-yl)ethynyl)-N-(4-(methylsulfonyl)phenyl)-2,6-naphthyridin-3-amine]",IC50,"[1]; 25-250 nM, CDK2/CCNE, read-out: CDK2/CCNE IC50, 25-250 nM",25 to 250 nM
same,IC50,[2]; [16],> 250 nM
same,IC50,[3]; [17],> 250 nM
same,IC50,[4]; [18],> 250 nM
"CC1(C)C(=O)Nc2cc(C#Cc3nccc4cnc(Nc5ccc(S(C)(=O)=O)cc5)cc34)c(F)cc21 [Example 446, 5-fluoro-3,3-dimethyl-6-((7-((4-(methylsulfonyl)phenyl)amino)-2,6-naphthyridin-1-yl)ethynyl)indolin-2-one]",IC50,[1]; [9],< 25 nM
same,IC50,"[2]; CDK1/CCNB, x = IC50 25-250 nM, read-out: CDK1/CCNB IC50 (25-250 nM)",25 to 250 nM
same,IC50,"[3]; CDK4/CCND, x = IC50 25-250 nM, read-out: CDK4/CCND IC50 (25-250 nM)",25 to 250 nM
same,IC50,[4]; [12],> 250 nM
"CS(=O)(=O)N1CCC(Nc2cc3c(-c4ccc5[nH]ncc5c4)nccc3cn2)CC1 [Ex 77, 5-(1H-indazol-5-yl)-N-(1-(methylsulfonyl)piperidin-4-yl)-2,6-naphthyridin-3-amine]",IC50,[1]; [5],< 25 nM
same,IC50,[2]; [6],> 250 nM
same,IC50,[3]; [7],25 to 250 nM
same,IC50,[4]; [15],25 to 250 nM
"CN1CCC(C2CCN(c3nccc4cnc(NC5CCN(S(C)(=O)=O)CC5)cc34)CC2)CC1 [Ex 28, 5-(1'-methyl-[4,4'-bipiperidin]-1-yl)-N-(1-(methylsulfonyl)piperidin-4-yl)-2,6-naphthyridin-3-amine]",IC50,[1]; [13],25 to 250 nM
same,IC50,[2]; [6],> 250 nM
same,IC50,[3]; [7],25 to 250 nM
same,IC50,"[4]; CDK6/CCND, <25 nM, read-out: CDK6/CCND IC50 <25 nM",< 25 nM
"CC1(C)C(=O)Nc2cc(C#Cc3nccc4cnc(Nc5ccc(S(C)(=O)=O)c(F)c5)cc34)ccc21 [Ex 422, 6-((7-((3-fluoro-4-(methylsulfonyl)phenyl)amino)-2,6-naphthyridin-1-yl)ethynyl)-3,3-dimethylindolin-2-one]",IC50,[1]; [9],< 25 nM
same,IC50,[2]; [10],> 250 nM
same,IC50,[3]; [11],> 250 nM
same,IC50,[4]; [12],> 250 nM
"CCC1(CC)C(=O)Nc2cc(C#Cc3nccc4cnc(Nc5ccc(S(=N)(=O)C6CCC6)cc5OC)cc34)ccc21 (single isomer, unassigned) [Ex 269, 6-((7-((4-(cyclobutanesulfonimidoyl)-2-methoxyphenyl)amino)-2,6-naphthyridin-1-yl)ethynyl)-3,3-diethylindolin-2-one]",IC50,[1]; [5],< 25 nM
same,IC50,[2]; [6],> 250 nM
same,IC50,[3]; [14],> 250 nM
same,IC50,[4]; [8],> 250 nM
"Cn1cc(C#Cc2nccc3cnc(Nc4ccc(S(C)(=O)=O)cc4)cc23)ccc1=O [Example 663, 1-Methyl-5-((7-((4-(methylsulfonyl)phenyl)amino)-2,6-naphthyridin-1-yl)ethynyl)pyridin-2(1H)-one]",IC50,[1]; [19],25 to 250 nM
same,IC50,[2]; [10],> 250 nM
same,IC50,[3]; [11],> 250 nM
same,IC50,[4]; [12],> 250 nM
"Cc1c(-c2nccc3cnc(Nc4ccc(NS(=O)(=O)c5cccc6nonc56)cc4)cc23)ccc2c1cnn2CC(C)(C)O [Ex 821, N-(4-((5-(1-(2-hydroxy-2-methylpropyl)-4-methyl-1H-indazol-5-yl)-2,6-naphthyridin-3-yl)amino)phenyl)benzo[c][1,2,5]oxadiazole-4-sulfonamide]",IC50,[1]; [20],< 25 nM
same,IC50,[2]; [16],> 250 nM
same,IC50,[3]; [17],> 250 nM
same,IC50,[4]; [18],> 250 nM
"Cc1c(-c2nccc3cnc(Nc4ccc(S(C)(=O)=O)cc4)nc23)ccc2c1cnn2CCO [Example 963, 2-(4-methyl-5-(2-((4-(methylsulfonyl)phenyl)amino)pyrido [3,4-d]pyrimidin-8-yl)-1H-indazol-1-yl)ethan-1-ol]",IC50,"[1]; 3 nM CDK2/CCNE1, 1 mM ATP, read-out: CDK2/CCNE IC50 <25 nM",< 25 nM
same,IC50,"[2]; 0.5 nM CDK1/CCNB1, 1 mM ATP, read-out: CDK1/CCNB IC50 25-250 nM",25 to 250 nM
same,IC50,"[3]; 1.5 nM CDK4/CCND3, 1 mM ATP, read-out: CDK4/CCND IC50 25-250 nM",25 to 250 nM
same,IC50,"[4]; 1 nM CDK6/CCND1, 1 mM ATP, read-out: CDK6/CCND IC50 25-250 nM",25 to 250 nM
"CS(=O)(=O)c1ccc(Nc2cc3c(C#Cc4ccc(O)cn4)nccc3cn2)cc1 [Ex 627, 6-((7-((4-(methylsulfonyl)phenyl)amino)-2,6-naphthyridin-1-yl)ethynyl)pyridin-3-ol]",IC50,[1]; [19],25 to 250 nM
same,IC50,[2]; [10],> 250 nM
same,IC50,[3]; [11],> 250 nM
same,IC50,[4]; [12],> 250 nM
"Cc1c(-c2nccc3cnc(Nc4ccc(S(=O)(=O)Nc5ccccn5)cc4)cc23)ccc2c1cnn2CC(C)(C)O [Ex 924, 4-((5-(1-(2-hydroxy-2-methylpropyl)-4-methyl-1H-indazol-5-yl)-2,6-naphthyridin-3-yl)amino)-N-(pyridin-2-yl)benzenesulfonamide]",IC50,[1]; [20],< 25 nM
same,IC50,[2]; [16],> 250 nM
same,IC50,"[3]; 25-250 nM, CDK4/CCND, read-out: CDK4/CCND IC50, 25-250 nM",25 to 250 nM
same,IC50,"[4]; 25-250 nM, CDK6/CCND, 1 mM ATP, read-out: CDK6/CCND IC50, 25-250 nM",25 to 250 nM
"CS(=O)(=O)c1ccc(Nc2cc3c(C4CCCC4)nccc3cn2)cc1 [Example 23, 5-cyclopentyl-N-(4-(methylsulfonyl)phenyl)-2,6-naphthyridin-3-amine]",IC50,[1]; [5],< 25 nM
same,IC50,"[2]; CDK1/CCNB, 25-250 nM marked x, read-out: CDK1/CCNB IC50 25-250 nM",25 to 250 nM
same,IC50,[3]; [7],25 to 250 nM
same,IC50,[4]; [15],25 to 250 nM
"CC1(C)C(=O)Nc2cc(C#Cc3nccc4cnc(Nc5ccc(S(C)(=O)=O)c(O)c5)cc34)ccc21 [Ex 379, 6-((7-((3-hydroxy-4-(methylsulfonyl)phenyl)amino)-2,6-naphthyridin-1-yl)ethynyl)-3,3-dimethylindolin-2-one]",IC50,[1]; [9],< 25 nM
same,IC50,[2]; [10],> 250 nM
same,IC50,[3]; [11],> 250 nM
same,IC50,[4]; [12],> 250 nM
"CCS(=N)(=O)c1ccc(Nc2cc3c(C#Cc4ccc5c(c4)NC(=O)C54CCC4)nccc3cn2)c(OC)c1 (single isomer, unassigned) [Ex 310, 6'-((7-((4-(ethylsulfonimidoyl)-2-methoxyphenyl)amino)-2,6-naphthyridin-1-yl)ethynyl)spiro[cyclobutane-1,3'-indolin]-2'-one]",IC50,[1]; [5],< 25 nM
same,IC50,[2]; [6],> 250 nM
same,IC50,[3]; [14],> 250 nM
same,IC50,[4]; [8],> 250 nM
"CS(=O)(=O)c1ccc(Nc2cc3c(C#Cc4ccc(C(F)F)nc4)nccc3cn2)cc1 [Example 524, 5-((6-(difluoromethyl)pyridin-3-yl)ethynyl)-N-(4-(methylsulfonyl)phenyl)-2,6-naphthyridin-3-amine]",IC50,"[1]; CDK2/CCNE, x = IC50 >250 nM, read-out: CDK2/CCNE IC50 (>250 nM column)",> 250 nM
same,IC50,[2]; [10],> 250 nM
same,IC50,[3]; [11],> 250 nM
same,IC50,[4]; [12],> 250 nM
